From publication PMC7433713, “Beyond Single Nucleotide Polymorphisms: CYP3A5^∗3^∗6^∗7 Composite and ABCB1 Haplotype Associations to Tacrolimus Pharmacokinetics in Black and White Renal Transplant Recipients” (Frontiers in Genetics, 2020)
Like-named read-outs stand apart in the source and are kept apart here.

Key:
[1] = MPA trough at 12 h in study patients by CYP3A5*3*6*7 metabolic group; settings: both sexes, human, in vivo, oral, ECMPS at steady state
Protocol: (§1) Tacrolimus doses were adjusted to 4–9 ng/ml troughs based upon time post-transplant and clinical response using a program-specific minimization protocol. ECMPS was dose adjusted based upon clinical response. Estimated glomerular filtration rate (e-GFR) was calculated using the four-factor MDRD equation ([Levey et al., 1999]). Medication adherence was verified by transplant nurse clinician and medication adherence assessment by transplant pharmacist at enrollment. Ethnicity for two previous generations was verified prior to study.

[2] = clinical; settings: both, human, whole blood, oral
Protocol: (§2) All patients were at steady-state conditions for both tacrolimus and ECMPS. Patients were enrolled only if they had received the same dose of tacrolimus and ECMPS for ≥7 days prior to study. This was assumed to be sufficient to approach steady-state plasma concentrations. Proton pump inhibiters, H2 antagonists and antacids were discontinued at least 36 h prior to study. Patients took immunosuppressives between 5:30 to 6:30 PM prior to study, fasted and abstained from caffeine and alcohol for 12 h prior to study. At 6:00 AM, patients were admitted, vital signs documented and an intravenous angiocatheter inserted. A 0 h sample (∼15 ml) was collected prior to immunosuppressives for drug troughs and laboratory tests (ECMC Clinical Chemistry Laboratory). Oral study medications [(single lot of tacrolimus (Prograf) and ECMPS (Myfortic)] were administered at 7:00 AM. Patients remained upright throughout the study. Standardized low fat meals were provided after 4 h. Antihypertensives were administered after 1.5 h and non-immunosuppressives after 4 h. Blood samples (7 ml) were collected at 0 h and 1, 2, 3, 4, 6, 8, 10, and 12 h after drug administration. Whole blood samples were aliquoted within 30 minutes and stored at −70°C until analysis.
(§3) Given the known linkage among all three ABCB1 SNPs, haplotype analysis was conducted. […] ABCB1 haplotype estimation was determined using the THESIAS program ([Tregouet et al., 2004]; [Tregouet and Garelle, 2007]). THESIAS uses a maximum likelihood algorithm for the simultaneous estimation of haplotype frequencies and their association to tacrolimus pharmacokinetic parameters.
(§4) Tacrolimus troughs and pharmacokinetic concentrations were analyzed within 24 h at the ECMC Clinical Laboratory using the [sequence] tacrolimus assay (Abbott, Abbott Park, IL), a chemiluminescent microparticle immunoassay. The lower limit of detection was 0.5 ng/ml and intraday assay variability was <7%. The calibration standard curve ranged from 1 to 30 ng/ml and quality controls (QC) were 3.0, 12.0, and 25 ng/mL (Bio-Rad, Hercules, CA, United States). The interday coefficient of variation (CV) for each QC was <4% and intra-day CV was <5%. Selected troughs and peaks (N = 40 samples) were analyzed using a validated LCMSMS assay by a CLIA certified external analytical laboratory and compared to the results generated from the [sequence] tacrolimus assay with excellent agreement (R^2 = 0.98). For the tacrolimus LCMSMS assay, the interday and intraday CV were <5% at the low and high concentration QC.
(§5) Pharmacokinetic parameters included area under the concentration versus time curve 0 to 12 h (AUC0–12 h), dose-normalized AUC0–12 (AUC^∗); 12-h trough (C12 h) and peak concentration (Cmax) with dose normalization and time to peak (T max). Oral clearance of tacrolimus was the ratio of dose to AUC0–12 h. Tacrolimus clearances were adjusted for TBW and LBW. AUC0–12 was determined by the linear trapezoidal rule using non-compartmental methods (Phoenix WINNONLIN Version 6.3. Pharsight Corp, Mountain View, Calif). C12 h, Cmax, AUC0–4 h, and AUC0–12 were dose-normalized to 1 mg dose equivalent.

[3] = single chromosome; for AUC0–4, phenotypic mean [95% CI] / AUC*, phenotypic mean [95% CI]: race adjusted Thesias; for CL_F, phenotypic mean [95% CI]: sex-adjusted Thesias
Protocol: as §2, §3, §4, §5

[4] = Tacrolimus pharmacokinetics stratified by CYP3A5 metabolic composite and ABCB1 3435 genotype; format: in vivo, human; settings: for Tmax / AUC / Cmax / concentration at 12 h / clearance: human, whole blood, oral; for concentration at 12 h: read-out: C12hr; for clearance: read-out: CL/LBW (converted)
Protocol: To assess the role of both CYP3A5 and ABCB1 variants on tacrolimus pharmacokinetics the CYP3A5 metabolic composite groups and the ABCB1 3435C > T (rs1045642) were included in a single analysis. […] Significant effects of both CYP3A5 and ABCB1 variants on tacrolimus pharmacokinetics was assessed using multivariate analysis of variance.
All patient demographics and tacrolimus pharmacokinetic parameters were summarized by metabolic composite score for CYP3A5^∗3^∗6^∗7 using the mean and standard deviation for continuous variables. The potential trend between metabolic composite genotypes and association to tacrolimus pharmacokinetics were evaluated using the two-sided Jonckheere-Terpstra test for trends ([Jonckheere, 1983]). Post hoc pairwise comparisons were made using Holm-Bonferroni adjusted Wilcoxon rank sum tests (version 9.3, SAS Institute, Cary, NC). Significant combined effects reflecting composite metabolic CYP3A5 and ABCB1 variants on tacrolimus pharmacokinetics was assessed using multivariate analysis of variance ([Littell et al., 2006]). Significant effects are shown in bold.

[5] = 12-h steady-state tacrolimus pharmacokinetics by CYP3A5*3*6*7 metabolic composite group in renal transplant recipients; format: in vivo, human
Protocol: as §1
Loss of protein function due to any one of these variants can occur independent of allelic status at the other two loci; thus assessment of any single SNP may be misleading as an indicator of enzyme function. Patients were assigned a metabolic composite designation as described earlier ([Campagne et al., 2018]) based upon the combined allelic status at all three independent loci (Figure 1). The Extensive Metabolizer phenotype was assigned to individuals with functional genes on both chromosomes. Patients were assigned the Poor Metabolizer phenotype if they were homozygous for the variant allele at any one of the three SNPs and thus CYP3A5 genes on both chromosomes are non-functional (Figure 1C). Patients were designated as Intermediate Metabolizer if they were heterozygous for one loss of function SNP at any of the three loci (Figure 1B). Finally, for patients who were heterozygous at two or more of the SNPs responsible for loss of function, the level of enzyme is dependent upon the arrangement of the variant alleles on each chromosome (Figure 1D). […] For this analysis double heterozygotes (Figure 1D) were conservatively assigned as an Intermediate Metabolizer since individuals could either be poor or intermediate metabolizers.

[6] = ABCB1 3534 CC, CYP3A5 Extensive (N 6)
[7] = ABCB1 3534 CC, CYP3A5 Intermediate (N 10)
[8] = ABCB1 3534 CC, CYP3A5 Poor (N 13)
[9] = ABCB1 3534 CT and TT, CYP3A5 Extensive (N 6)
[10] = ABCB1 3534 CT and TT, CYP3A5 Intermediate (N 10)
[11] = ABCB1 3534 CT and TT, CYP3A5 Poor (N 20)
[12] = 2.35 mg, ABCB1 3534 CT and TT, CYP3A5 Poor (N 20)
[13] = 2.46 mg, ABCB1 3534 CC, CYP3A5 Poor (N 13)
[14] = 3.55 mg, ABCB1 3534 CT and TT, CYP3A5 Intermediate (N 10)
[15] = 4 mg, ABCB1 3534 CC, CYP3A5 Intermediate (N 10)
[16] = 5.08 mg, ABCB1 3534 CT and TT, CYP3A5 Extensive (N 6)
[17] = 5.67 mg, ABCB1 3534 CC, CYP3A5 Extensive (N 6)

SMILES: COc1c(C)c2c(c(O)c1C/C=C(\C)CCC(=O)O)C(=O)OC2 [MPA, mycophenolic acid]
- concentration at 12 h ([1]; CYP3A5*3*6*7 Extensive group (N 7)): 42 ng/mL
- concentration at 12 h ([1]; CYP3A5*3*6*7 Intermediate group (N 23)): 41 ng/mL
- concentration at 12 h ([1]; CYP3A5*3*6*7 Poor group (N 35)): 32 ng/mL
- concentration at 12 h ([1]; Overall (N 65)): 37 ng/mL

SMILES: C=CC[C@@H]1/C=C(\C)C[C@H](C)C[C@H](OC)[C@H]2O[C@@](O)(C(=O)C(=O)N3CCCC[C@H]3C(=O)O[C@H](/C(C)=C/[C@@H]3CC[C@@H](O)[C@H](OC)C3)[C@H](C)[C@@H](O)CC1=O)[C@H](C)C[C@@H]2OC [tacrolimus]
- clearance ([2]; 1.58 mg): 6 mL/min/kg
- clearance ([2]; 2.45 mg): 8 mL/min/kg
- C max/Dose, phenotypic mean [95% CI] ([3]; ABCB1 variant haplotype TTT): 4.06[3.19 – 4.93] ng/ml/mg
- AUC0–4, phenotypic mean [95% CI] ([3]; ABCB1 variant haplotype TTT): 43.9 [33.4 – 54.4] ng.hr/ml/mg
- AUC*, phenotypic mean [95% CI] ([3]; ABCB1 variant haplotype TTT): 92.2 [74.6 – 109.8] ng.hr/ml/mg
- CL_F, phenotypic mean [95% CI] ([3]; ABCB1 variant haplotype TTT): 13.99 [7.87 – 20.11]* L/hr
- C max/Dose, phenotypic mean [95% CI] ([3]; ABCB1 wild type haplotype CGC): 3.01[2.42 – 3.59] ng/ml/mg
- AUC0–4, phenotypic mean [95% CI] ([3]; ABCB1 wild type haplotype CGC): 36.59 [30.2 – 42.9] ng.hr/ml/mg
- AUC*, phenotypic mean [95% CI] ([3]; ABCB1 wild type haplotype CGC): 80.0[68.8 – 91.1] ng.hr/ml/mg
- CL_F, phenotypic mean [95% CI] ([3]; ABCB1 wild type haplotype CGC): 20.4 [14.5 – 26.3]* L/hr
- AUC0–12 Dose [4, 6]: 23.95 (8.30) ng.hr/ml/mg
- C12hr/dose [4, 6]: 1.43 (0.55) ng/ml/mg
- CL_F [4, 6]: 48.23 (4.32) L/hr
- Cmax/Dose [4, 6]: 3.36 (1.19) ng/ml
- AUC0–12 Dose [4, 7]: 36.76 (6.43) ng.hr/ml/mg
- AUC* [4, 7]: 130.75 (9.73) ng.hr/ml
- C12hr/dose [4, 7]: 2.16 (0.43) ng/ml/mg
- CL_F [4, 7]: 31.30 (3.35) L/hr
- Cmax/Dose [4, 7]: 5.21 (0.92) ng/ml
- AUC0–12 Dose [4, 8]: 56.39 (5.64) ng.hr/ml/mg
- C12hr/dose [4, 8]: 3.44 (0.37) ng/ml/mg
- CL_F [4, 8]: 22.61 (2.94) L/hr
- Cmax/Dose [4, 8]: 7.20 (0.81) ng/ml
- AUC0–12 Dose [4, 9]: 28.97 (8.30) ng.hr/ml/mg
- AUC* [4, 9]: 129.45 (12.57) ng.hr/ml
- C12hr/dose [4, 9]: 1.57 (0.55) ng/ml/mg
- CL_F [4, 9]: 39.53 (4.32) L/hr
- Cmax/Dose [4, 9]: 4.95 (1.19) ng/ml
- AUC0–12 Dose [4, 10]: 42.94 (6.43) ng.hr/ml/mg
- C12hr/dose [4, 10]: 2.40 (0.43) ng/ml/mg
- CL_F [4, 10]: 24.49 (3.35) L/hr
- Cmax/Dose [4, 10]: 6.61 (0.92) ng/ml
- AUC0–12 Dose [4, 11]: 56.80 (4.55) ng.hr/ml/mg
- C12hr/dose [4, 11]: 3.30 (0.30) ng/ml/mg
- CL_F [4, 11]: 20.09 (2.37) L/hr
- Cmax/Dose [4, 11]: 8.09 (0.65) ng/ml
- effect of ABCB1 3435 T allele on tacrolimus clearance ([4]; across all 3 CYP3A5 metabolic composite groups, P = 0.040): significantly reduced
- Tmax ([4]; both sexes, 2.46 mg, ABCB1 3534 CC, CYP3A5 Poor (N 13)): 1.94 h
- Tmax ([4]; both sexes, 4 mg, ABCB1 3534 CC, CYP3A5 Intermediate (N 10)): 1.87 h
- Tmax ([4]; both sexes, 5.67 mg, ABCB1 3534 CC, CYP3A5 Extensive (N 6)): 1.78 h
- AUC ([4]; 2.35 mg, ABCB1 3435 CT and TT, CYP3A5 Poor (N 20)): 118 ng·h/mL
- Cmax [4, 12]: 17 ng/mL
- Tmax [4, 12]: 1.72 h
- concentration at 12 h [4, 12]: 6.81 ng/mL
- clearance [4, 12]: 6.5 mL/min/kg
- AUC ([4]; 2.46 mg, ABCB1 3435 CC, CYP3A5 Poor (N 13)): 117 ng·h/mL
- Cmax [4, 13]: 15.7 ng/mL
- concentration at 12 h [4, 13]: 6.94 ng/mL
- clearance [4, 13]: 6.17 mL/min/kg
- AUC ([4]; 3.55 mg, ABCB1 3435 CT and TT, CYP3A5 Intermediate (N 10)): 150 ng·h/mL
- Cmax [4, 14]: 23.3 ng/mL
- Tmax [4, 14]: 2.29 h
- concentration at 12 h [4, 14]: 8.37 ng/mL
- clearance [4, 14]: 6.83 mL/min/kg
- Cmax [4, 15]: 18.6 ng/mL
- concentration at 12 h [4, 15]: 7.55 ng/mL
- clearance [4, 15]: 9.17 mL/min/kg
- Cmax [4, 16]: 23.7 ng/mL
- Tmax [4, 16]: 2.03 h
- concentration at 12 h [4, 16]: 6.58 ng/mL
- clearance [4, 16]: 13.2 mL/min/kg
- AUC ([4]; 5.67 mg, ABCB1 3435 CC, CYP3A5 Extensive (N 6)): 122 ng·h/mL
- Cmax [4, 17]: 17 ng/mL
- concentration at 12 h [4, 17]: 7.4 ng/mL
- clearance [4, 17]: 15 mL/min/kg
- patients with 12-h tacrolimus exposures <120 ng.hr/ml ([5]; Blacks, 10/33): 30%
- AUC* lower in Extensive than Poor metabolizers ([5]; P < 0.001): 50%
- patients with 12-h tacrolimus exposures <120 ng.hr/ml ([5]; Whites, 17/32): 53%
- patients exhibiting AUC0–12 h below the recommended therapeutic range ([5]; all patients, in spite of achieving target troughs): approximately 40%
- dose normalized trough (Cp12hr/dose), Poor compared to Extensive Metabolizers ([5]; greater in Poor, P = 0.0016): 2.5 fold
- dose-adjusted AUC0–12 h, Poor compared to Extensive metabolizers ([5]; higher in Poor, P < 0.001): 2 fold
- patients within the therapeutic trough range ([5]; target range >4 ng/ml and <15 ng/ml): 64 of 65
